Experimental data: PubChem BioAssay (NCI)
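Grown in 96-well plates, cells were treated for 48 hours with each compound at five concentrations. Insufficient inhibition: endpoint recorded as highest concentration tested. GI50 is the concentration that inhibits growth by half. Definition used: TGI = concentration required for complete inhibition of growth.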

Assays:
Assay in all cases: NCI tumour cell line growth inhibition, 48 h
786-0 renal = test system: 786-0 renal
CAKI-1 renal = test system: CAKI-1 renal
HS 578T breast = test system: HS 578T breast
MDA-N = test system: MDA-N
OVCAR-5 ovarian = test system: OVCAR-5 ovarian
SF-268 CNS = test system: SF-268 CNS
SF-539 CNS = test system: SF-539 CNS
SN12C renal = test system: SN12C renal
SNB-75 CNS = test system: SNB-75 CNS
SW-620 colon = test system: SW-620 colon
U251 CNS = test system: U251 CNS
SR leukemia = test system: SR leukemia

SMILES	TGI (786-0 renal)	TGI (CAKI-1 renal)	TGI (HS 578T breast)	TGI (MDA-N)	TGI (OVCAR-5 ovarian)	TGI (SF-268 CNS)	TGI (SF-539 CNS)	TGI (SN12C renal)	TGI (SNB-75 CNS)	TGI (SW-620 colon)	TGI (U251 CNS)	TGI (SR leukemia)	GI50 (CAKI-1 renal)	GI50 (SF-268 CNS)	GI50 (SN12C renal)	GI50 (SW-620 colon)	GI50 (U251 CNS)
CCOC(=O)C1(C/C=C/CBr)Cc2ccccc2C1=O (configuration not stated)	25.8 µM	7.27 µM	24.4 µM	6.37 µM	20.1 µM	10 µM	3.39 µM	6.41 µM	31.9 µM	7.06 µM	14.8 µM						
Cc1cc(Cc2cc(C)c(N)cc2N)c(N)cc1N	> 100 µM	> 100 µM		> 100 µM	> 100 µM	> 100 µM	> 100 µM	> 100 µM	> 100 µM	> 100 µM	> 100 µM						
Cc1n[nH]c(=O)n1/N=C/c1ccc(Cl)cc1	> 100 µM	> 100 µM		> 100 µM	> 100 µM	> 100 µM	> 100 µM	> 100 µM	> 100 µM	> 100 µM		> 100 µM					
O=C(CCN1CCCCC1)C(=Cc1ccccc1)C(=O)CCN1CCCCC1		> 100 µM			> 100 µM	> 100 µM	> 100 µM	> 100 µM	> 100 µM		> 100 µM		80.4 µM	5.88 µM	3.52 µM	1.76 µM	3.04 µM
COc1ccc2c(c1)/C(=C/CCN(C)C)c1ccccc1S2			> 100 µM	> 100 µM		> 100 µM		> 100 µM	> 100 µM	> 100 µM	> 100 µM	> 100 µM					
COC(=O)C([C@H](NC1(c2ccccc2)c2ccccc2-c2ccccc21)C(=O)OC)N(NC(=O)OCc1ccccc1)C(=O)OCc1ccccc1 (mixture of isomers)	> 100 µM	> 100 µM	> 100 µM	> 100 µM	> 100 µM	> 100 µM	> 100 µM	> 100 µM		> 100 µM	> 100 µM	> 100 µM					
C[C@@H]1CC[C@]2(C(=O)O)CC[C@]3(C)C(=CC[C@@H]4[C@@]5(C)CC[C@H](O)C(C)(C)[C@@H]5CC[C@]43C)[C@@H]2[C@]1(C)O	18.7 µM	27.3 µM	16.1 µM		31.5 µM	34.2 µM	12 µM	30.1 µM	28.1 µM	42.1 µM	27.3 µM	30 µM					
CC(=O)NC(Cc1ccc(O)cc1)C(=O)O (configuration not stated)	> 100 µM	> 100 µM	> 100 µM	> 100 µM	> 100 µM	> 100 µM		> 100 µM		> 100 µM	> 100 µM						
C1CN(c2nc3c(nnc4nc(N5CCOCC5)sc43)s2)CCO1	> 100 µM	> 100 µM	> 100 µM	> 100 µM	> 100 µM	> 100 µM	> 100 µM	> 100 µM		> 100 µM	> 100 µM						
N#CC1(C#N)N[C@@H](c2ccsc2)[C@H]2C(=O)N(c3ccccc3)C(=O)[C@H]21	> 100 µM	> 100 µM	> 100 µM	> 100 µM		> 100 µM		> 100 µM	> 100 µM	> 100 µM	> 100 µM	78.7 µM					
c1ccc(N=c2sc3ccccc3nc2Nc2ccccc2)cc1	> 100 µM	> 100 µM	> 100 µM		> 100 µM	> 100 µM	> 100 µM	> 100 µM	> 100 µM	> 100 µM	> 100 µM	> 100 µM					
Cc1cn2c(/C=N/N=C(N)N)c(-c3cccc([N+](=O)[O-])c3)nc2s1	7.08 µM	6.06 µM	5.19 µM		5.5 µM	2.58 µM	4.05 µM	3.08 µM		2.7 µM	2.95 µM						
C=C(C)C(=O)OC1C/C(CO)=C\C(O)C/C(C)=C/C2OC(=O)C(=C)C21 (configuration not stated)	37.1 µM	58.7 µM			> 100 µM	57.8 µM	46.3 µM	38.8 µM	> 100 µM	33.3 µM	> 100 µM	50.5 µM					
CCCCC#C[I+]c1ccccc1	28.8 µM	27.1 µM			28 µM	39.7 µM	38.8 µM	28.3 µM	30.1 µM		29.9 µM	37.5 µM					
C[C@@H](NC(=O)[C@@H]1C[C@]1(C)COC(=O)c1cc([N+](=O)[O-])cc([N+](=O)[O-])c1)c1cccc2ccccc12	> 100 µM	> 100 µM	> 100 µM	> 100 µM	> 100 µM	> 100 µM		> 100 µM	> 100 µM	> 100 µM	> 100 µM	> 100 µM					
Clc1ccccc1C(SCc1ccccc1)SCc1ccccc1	> 100 µM	> 100 µM		> 100 µM	> 100 µM	> 100 µM	> 100 µM	> 100 µM	> 100 µM	> 100 µM	> 100 µM	> 100 µM					
CCC(C(=O)O)c1ccc(OC)cc1 (configuration not stated)		> 100 µM			> 100 µM	> 100 µM	> 100 µM	> 100 µM	> 100 µM	> 100 µM	> 100 µM	> 100 µM					
O=C(N/N=C(/COc1ccc(Cl)cc1)N=Cc1ccncc1)c1ccncc1	> 100 µM	> 100 µM	> 100 µM	> 100 µM	> 100 µM	> 100 µM	> 100 µM	> 100 µM		> 100 µM	> 100 µM						
O=[N+]([O-])c1ccc2c(c1)c(OCc1ccccc1)nn2Cc1ccccc1	> 100 µM	> 100 µM	> 100 µM	> 100 µM	> 100 µM	> 100 µM	> 100 µM	> 100 µM		> 100 µM							
COc1ccc(N/N=C2\CCOc3ccc(C)cc3C2=O)cc1	41.8 µM	> 100 µM	> 100 µM	22.3 µM	> 100 µM	> 100 µM	> 100 µM	> 100 µM		> 100 µM	66 µM	> 100 µM					
